Test results taken from patent publication US8501750B2, “Heterocyclic compound and use thereof” (Takeda Pharmaceutical Company Limited, priority 2007, dated 2013).
Where a name gives a salt, the structure may show the parent alone. Read-outs that look alike come from different tables or passages of the source.

Assays:
PPARγ = PPARγ (Homo sapiens (Human), UniProt P37231); assay: PPARγ activating action (luciferase reporter in PPARγ:RXRα:4ERPP/CHO-K1 cells); type: cell-based; conditions: CHO-K1, 24 h, read-out: PPARγ activating action (activation % (1 μM))
Protocol: Then the medium was removed from the 96-well half area white plate, 45 μl of Ham's F12 medium containing 0.1% fatty acid-free bovine serum albumin (BSA) and 5 μl of test compound were added, and the cells were cultured in a CO2 gas incubator at 37° C. for 1 day. The medium was removed and 20 μl of PicaGene 7.5 [manufactured by Dainippon Ink and Chemicals Corporation, Japan] diluted 2-fold with HBSS (HANKS' BALANCED SALT SOLUTION) [manufactured by BIO WHITTAKER, USA] was added. After stirring, the luciferase activity was determined using 1420 ARVO Multilabel Counter [manufactured by PerkinElmer, USA]. […] A CHO-K1 cell cultured in a 150 cm^2 cell culture flask [manufactured by Corning Costar Corporation, USA] containing Ham's F12 medium [manufactured by INVITROGEN, USA] supplemented with 10% fetal bovine serum [manufactured by INVITROGEN, USA] was scraped by treating with 0.5 g/L trypsin-0.2 g/L EDTA (ethylenediaminetetraacetic acid) [manufactured by Life Technologies, Inc., USA], and then the cell was washed with PBS (Phosphate-buffered saline) [manufactured by INVITROGEN, USA], centrifuged (1000 rpm, 5 minutes) and suspended in PBS. Subsequently, DNA was introduced into the cell under the conditions shown below using GENE PULSER [manufactured by Bio-Rad Laboratories, USA]. […] Subsequently, the cell was transferred into a F12 medium containing 10% fetal bovine serum and cultured for 24 hours, and then the cell was scraped again and centrifuged, and then suspended in Ham's F12 medium containing 10% fetal bovine serum supplemented with 500 μg/ml of Geneticin [manufactured by INVITROGEN, USA] and 250 μg/ml of Zeocin [manufactured by INVITROGEN, USA]. The obtained suspension was diluted to the density of 10^4 cells/ml and inoculated in a 96-well plate [manufactured by Corning Costar Corporation, USA], which was cultured in a CO2 gas incubator at 37° C., whereby obtaining a Geneticin- and Zeocin-resistant transformant.

AT1 receptor = AT1 receptor (Homo sapiens (Human), UniProt P30556); assay: AT1 receptor binding inhibitory action
[1] = test compound 1 μM, luciferase activity relative to control compound X (1 μM) = 100%, non-administration group = 0%

Chain of AT1 receptor (P30556 whole entry): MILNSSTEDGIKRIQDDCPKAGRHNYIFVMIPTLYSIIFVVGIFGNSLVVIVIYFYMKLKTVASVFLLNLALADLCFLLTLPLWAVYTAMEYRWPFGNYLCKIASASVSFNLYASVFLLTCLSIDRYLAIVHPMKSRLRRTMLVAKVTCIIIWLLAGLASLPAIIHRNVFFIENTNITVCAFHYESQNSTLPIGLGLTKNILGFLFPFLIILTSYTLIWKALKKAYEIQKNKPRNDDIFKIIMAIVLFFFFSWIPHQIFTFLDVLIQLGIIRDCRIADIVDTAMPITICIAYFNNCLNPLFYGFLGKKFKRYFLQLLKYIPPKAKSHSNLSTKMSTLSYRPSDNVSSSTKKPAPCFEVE
Chain of PPARγ (P37231 29-505): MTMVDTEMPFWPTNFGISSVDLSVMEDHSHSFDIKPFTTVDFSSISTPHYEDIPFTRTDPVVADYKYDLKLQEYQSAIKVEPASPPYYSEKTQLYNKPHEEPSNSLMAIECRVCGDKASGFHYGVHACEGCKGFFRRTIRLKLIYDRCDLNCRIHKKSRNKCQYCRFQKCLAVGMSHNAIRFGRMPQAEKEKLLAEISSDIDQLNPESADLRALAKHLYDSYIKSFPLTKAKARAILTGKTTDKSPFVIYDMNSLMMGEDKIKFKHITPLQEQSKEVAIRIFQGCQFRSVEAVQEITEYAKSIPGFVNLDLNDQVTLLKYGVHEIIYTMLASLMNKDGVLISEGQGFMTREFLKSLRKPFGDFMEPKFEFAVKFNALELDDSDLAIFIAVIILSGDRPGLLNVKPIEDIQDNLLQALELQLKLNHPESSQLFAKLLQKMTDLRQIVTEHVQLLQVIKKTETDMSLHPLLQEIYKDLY
Chain of PPARγ (P19793 whole entry partner): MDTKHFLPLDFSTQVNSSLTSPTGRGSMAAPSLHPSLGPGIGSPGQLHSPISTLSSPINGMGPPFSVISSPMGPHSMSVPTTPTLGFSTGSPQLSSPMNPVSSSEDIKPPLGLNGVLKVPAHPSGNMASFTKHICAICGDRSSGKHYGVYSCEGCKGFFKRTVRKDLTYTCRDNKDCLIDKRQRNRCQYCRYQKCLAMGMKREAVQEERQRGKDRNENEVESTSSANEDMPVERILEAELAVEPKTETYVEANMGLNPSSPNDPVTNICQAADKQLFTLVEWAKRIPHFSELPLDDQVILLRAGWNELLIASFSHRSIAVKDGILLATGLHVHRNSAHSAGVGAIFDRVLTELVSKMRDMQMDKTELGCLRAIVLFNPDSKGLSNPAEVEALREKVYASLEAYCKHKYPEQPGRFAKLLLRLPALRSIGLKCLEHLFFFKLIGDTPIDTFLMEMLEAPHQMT

| Structure (SMILES) | activation at 1 µM (PPARγ; [1]) [%] | IC50 (AT1 receptor) [nM] | activation at 1 µM (PPARγ) [%] |
| --- | --- | --- | --- |
| CCc1cc2c(=O)n(CC(O)c3ccc(OC)cc3)c(=O)n(Cc3ccc(-c4ccccc4-c4noc(=O)[nH]4)cc3F)c2s1 (stereo not shown) [Ex. 152, 6-ethyl-1-{[3-fluoro-2′-(5-oxo-4,5-dihydro-1,2,4-oxadiazol-3-yl)biphenyl-4-yl]methyl}-3-[2-hydroxy-2-(4-methoxyphenyl)ethyl]thieno[2,3-d]pyrimidine-2,4(1H,3H)-dione] | 40 | 1.5 |  |
| CCc1cc2c(=O)n(CC(OC(C)=O)c3ccc(OC)cc3)c(=O)n(Cc3ccc(-c4ccccc4-c4noc(=O)[nH]4)cc3F)c2s1 (stereo not shown) [Ex. 153, 2-[6-ethyl-1-{[3-fluoro-2′-(5-oxo-4,5-dihydro-1,2,4-oxadiazol-3-yl)biphenyl-4-yl]methyl}-2,4-dioxo-1,4-dihydrothieno[2,3-d]pyrimidin-3(2H)-yl]-1-(4-methoxyphenyl)ethyl acetate] | 39 | 1.3 |  |
| CCc1cc2c(=O)n(CC(C)(C)C)c(=O)n(Cc3ccc(-c4ccccc4-c4noc(=O)[nH]4)cc3)c2s1 [Ex. 154, 3-(2,2-dimethylpropyl)-6-ethyl-1-{[2′-(5-oxo-4,5-dihydro-1,2,4-oxadiazol-3-yl)biphenyl-4-yl]methyl}thieno[2,3-d]pyrimidine-2,4(1H,3H)-dione] | 51 | 1.9 |  |
| CCc1cc2c(=O)n(CC(=O)c3ccc(OC)c(F)c3)c(=O)n(Cc3ccc(-c4ccccc4-c4noc(=O)[nH]4)cc3F)c2s1 [Ex. 157, 6-ethyl-3-[2-(3-fluoro-4-methoxyphenyl)-2-oxoethyl]-1-{[3-fluoro-2′-(5-oxo-4,5-dihydro-1,2,4-oxadiazol-3-yl)biphenyl-4-yl]methyl}thieno[2,3-d]pyrimidine-2,4(1H,3H)-dione] | 35 | 1.4 |  |
| CCc1cc2c(=O)n(-c3ccc(OC(C)C)cc3)c(=O)n(Cc3ccc(-c4ccccc4-c4noc(=O)[nH]4)cc3F)c2s1 [Ex. 180, 6-ethyl-1-{[3-fluoro-2′-(5-oxo-4,5-dihydro-1,2,4-oxadiazol-3-yl)biphenyl-4-yl]methyl}-3-(4-isopropoxyphenyl)thieno[2,3-d]pyrimidine-2,4(1H,3H)-dione] | 50 | 1.6 |  |
| CCc1cc2c(=O)n(-c3ccc4c(c3)CC(C)(C)O4)c(=O)n(Cc3ccc(-c4ccccc4-c4noc(=O)[nH]4)cc3F)c2s1 [Ex. 181, 3-(2,2-dimethyl-2,3-dihydro-1-benzofuran-5-yl)-6-ethyl-1-{[3-fluoro-2′-(5-oxo-4,5-dihydro-1,2,4-oxadiazol-3-yl)biphenyl-4-yl]methyl}thieno[2,3-d]pyrimidine-2,4(1H,3H)-dione] | 55 | 1.2 |  |
| CC(C)(C)C(=O)Cn1c(=O)c2cc(C3CC3)sc2n(Cc2ccc(-c3ccccc3-c3noc(=O)[nH]3)cc2)c1=O [Ex. 186, 6-cyclopropyl-3-(3,3-dimethyl-2-oxobutyl)-1-{[2′-(5-oxo-4,5-dihydro-1,2,4-oxadiazol-3-yl)biphenyl-4-yl]methyl}thieno[2,3-d]pyrimidine-2,4(1H,3H)-dione] | 52 | 1.2 |  |
| CCc1cc2c(=O)n(CC(=O)c3ccc(OC)cc3)c(=O)n(Cc3ccc(-c4ccccc4-c4noc(O)n4)cc3OC)c2s1 [Ex. 192, 6-ethyl-1-{[3-methoxy-2′-(5-oxo-4,5-dihydro-1,2,4-oxadiazol-3-yl)biphenyl-4-yl]methyl}-3-[2-(4-methoxyphenyl)-2-oxoethyl]thieno[2,3-d]pyrimidine-2,4(1H,3H)-dione potassium salt] |  | 2.3 | 49 |
| CCc1cc2c(=O)n(CC(=O)c3ccc(OC)cc3)c(=O)n(Cc3ccc(-c4ccccc4-c4noc(O)n4)cc3Br)c2s1 [Ex. 194, 1-{[3-bromo-2′-(5-oxo-4,5-dihydro-1,2,4-oxadiazol-3-yl)biphenyl-4-yl]methyl}-6-ethyl-3-[2-(4-methoxyphenyl)-2-oxoethyl]thieno[2,3-d]pyrimidine-2,4(1H,3H)-dione potassium salt] |  | 1.7 | 34 |
| CCc1cc2c(=O)n(CC(=O)C3CCCCC3)c(=O)n(Cc3ccc(-c4ccccc4-c4noc(=O)[nH]4)cc3)c2s1 [Ex. 205, 3-(2-cyclohexyl-2-oxoethyl)-6-ethyl-1-{[2′-(5-oxo-4,5-dihydro-1,2,4-oxadiazol-3-yl)biphenyl-4-yl]methyl}thieno[2,3-d]pyrimidine-2,4(1H,3H)-dione] | 69 | 1.5 |  |

Now from value to compound, other results behind:

| activation at 1 µM (PPARγ; [1]) [%] | IC50 (AT1 receptor) [nM] | Structure (SMILES) | activation at 1 µM (PPARγ) [%] |
| --- | --- | --- | --- |
| 33 | 1.5 | CCc1cc2c(=O)n(CC(=O)c3ccc(Cl)s3)c(=O)n(Cc3ccc(-c4ccccc4-c4noc(=O)[nH]4)cc3)c2s1 [Ex. 150, 3-[2-(5-chloro-2-thienyl)-2-oxoethyl]-6-ethyl-1-{[2′-(5-oxo-4,5-dihydro-1,2,4-oxadiazol-3-yl)biphenyl-4-yl]methyl}thieno[2,3-d]pyrimidine-2,4(1H,3H)-dione] |  |
| 30 | 1.7 | CCCc1cc2c(=O)n(CC(=O)c3ccc(OC)cc3)c(=O)n(Cc3ccc(-c4ccccc4-c4noc(=O)[nH]4)cc3F)c2s1 [Ex. 158, 1-{[3-fluoro-2′-(5-oxo-4,5-dihydro-1,2,4-oxadiazol-3-yl)biphenyl-4-yl]methyl}-3-[2-(4-methoxyphenyl)-2-oxoethyl]-6-propylthieno[2,3-d]pyrimidine-2,4(1H,3H)-dione] |  |
| 67 | 1.4 | CCc1cc2c(=O)n(CC(=O)c3ccc(OC)cc3)c(=O)n(Cc3c(F)cc(-c4ccccc4-c4noc(=O)[nH]4)cc3F)c2s1 [Ex. 197, 1-{[3,5-difluoro-2′-(5-oxo-4,5-dihydro-1,2,4-oxadiazol-3-yl)biphenyl-4-yl]methyl}-6-ethyl-3-[2-(4-methoxyphenyl)-2-oxoethyl]thieno[2,3-d]pyrimidine-2,4(1H,3H)-dione] |  |
| 36 | 1.5 | CCc1cc2c(=O)n(CC(=O)c3ccc(OC)cc3)c(=O)n(Cc3ccc(-c4ccc(F)cc4-c4noc(=O)[nH]4)cc3)c2s1 [Ex. 198, 6-ethyl-1-{[4′-fluoro-2′-(5-oxo-4,5-dihydro-1,2,4-oxadiazol-3-yl)biphenyl-4-yl]methyl}-3-[2-(4-methoxyphenyl)-2-oxoethyl]thieno[2,3-d]pyrimidine-2,4(1H,3H)-dione] |  |
| 28 | 1.8 | CCc1cc2c(=O)n(CC(=O)c3ccc(OC)cc3)c(=O)n(Cc3ccc(-c4cc(F)ccc4-c4noc(=O)[nH]4)cc3)c2s1 [Ex. 203, 6-ethyl-1-{[5′-fluoro-2′-(5-oxo-4,5-dihydro-1,2,4-oxadiazol-3-yl)biphenyl-4-yl]methyl}-3-[2-(4-methoxyphenyl)-2-oxoethyl]thieno[2,3-d]pyrimidine-2,4(1H,3H)-dione] |  |
| 66 | 1.4 | CCc1cc2c(=O)n(CC(=O)c3ccccc3)c(=O)n(Cc3ccc(-c4ccccc4-c4noc(=O)[nH]4)cc3)c2s1 [Ex. 209, 6-ethyl-1-{[2′-(5-oxo-4,5-dihydro-1,2,4-oxadiazol-3-yl)biphenyl-4-yl]methyl}-3-(2-oxo-2-phenylethyl)thieno[2,3-d]pyrimidine-2,4(1H,3H)-dione] |  |
| 31 | 1.6 | CCO/N=C(/Cn1c(=O)c2cc(CC)sc2n(Cc2ccc(-c3ccccc3-c3noc(=O)[nH]3)cc2)c1=O)c1ccc(OC)cc1 [Ex. 210, 3-[2-(ethoxyimino)-2-(4-methoxyphenyl)ethyl]-6-ethyl-1-{[2′-(5-oxo-4,5-dihydro-1,2,4-oxadiazol-3-yl)biphenyl-4-yl]methyl}thieno[2,3-d]pyrimidine-2,4(1H,3H)-dione] |  |
